≈ marks a conversion by molar mass, not a printed value. Entries after “also recorded” stand apart in the source; their conditions may differ.
Tests used:
Type in all cases: cell-based
[1] = system: E. coli JMI 21711R; experiment: change in bacterial density in vitro over 24 hours (growth rate)
Description: Moreover, note the impact of ascorbic acid on the time-course of levofloxacin antimicrobial activity.

[2] = system: S. aureus ATCC 29213; experiment: 10-day hollow-fiber in vitro infection model
Description: The treatment arms and associated control arms differed only in sodium chloride concentration (0 and 8%) within the growth media. The initial bacterial inoculum in the model was 1×10^8 CFU/mL was selected to approximate that observed in high-density infections, such as pneumonia. Moreover, the 10-day study duration was selected to approximate that typical for pneumonia.
Note that in the media in which the challenge isolate grew slowly (sodium chloride 8%), the time-until a reduction of bacterial density to 1×10^2 CFU/mL was 10 days. On the other hand, in the media in which the challenge isolate grew rapidly (sodium chloride 0%), the time-until reduction of bacterial density to 1×10^2 CFU/mL was 3 days.

[3] = system: E. coli JMI 21711R; experiment: levofloxacin MIC; conditions: Escherichia coli, JMI21711R
[4] = system: S. aureus ATCC 29213; experiment: levofloxacin MIC; conditions: Staphylococcus aureus, ATCC29213
[5] = system: S. aureus ATCC 29213; experiment: change in bacterial density in vitro over 24 hours (growth rate in Mueller-Hinton II broth); conditions: S. aureus ATCC 29213, in vitro over 24 hours, starting inoculum 1×10^6 CFU/mL, increasing sodium chloride concentration
[6] = system: S. aureus ATCC 29213; experiment: 24-hour one-compartment dynamic in vitro infection model; conditions: 10% sodium chloride, no levofloxacin
Description: Not previously recognized is the potential to modulate the intrinsic bacterial replication rate in combination with an antimicrobial agent as a means to increase the rate and extent of bactericidal activity. […] Each treatment arm and associated control arm differed only in sodium chloride concentration (0, 8, and 10%) within the growth media. […] Note also that bacterial killing occurred only during bacterial replication.

[7] = system: E. coli JMI 21711R; conditions: norepinephrine 500 μM, no levofloxacin
Description: Each treatment arm and its associated control arm differed only in norepinephrine concentration (0, 500 μM) within the growth media.

## O=C1O[C@H]([C@@H](O)CO)C(O)=C1O [ascorbic acid, Ascorbic acid]
[1]; ascorbic acid without levofloxacin
  bacterial replication rate relative to no treatment control: increases the bacterial replication rate relative to no treatment control

## C[C@H]1COc2c(N3CCN(C)CC3)c(F)cc3c(=O)c(C(=O)O)cn1c23 [levofloxacin]
[2]; fast (sodium chloride 0%) versus slow (sodium chloride 8%) growing media
  reduction in time-until a reduction of bacterial density to 1×10^2 CFU/mL: 70%
[2]; sodium chloride 0% (rapid growth), initial inoculum 1×10^8 CFU/mL, levofloxacin AUC:MIC ratio 520
  time-until reduction of bacterial density to 1×10^2 CFU/mL: 3 days
[2]; sodium chloride 8% (slow growth), initial inoculum 1×10^8 CFU/mL, levofloxacin AUC:MIC ratio 520
  time-until a reduction of bacterial density to 1×10^2 CFU/mL: 10 days
[3]
  MIC: 8 µg/mL (≈ 22.1 µM)
[4]
  MIC: 0.125 µg/mL (≈ 0.346 µM)

## [Cl-].[Na+] [sodium chloride]
[5]
  bacterial replication rate (change in bacterial density): as sodium chloride concentration increases, the bacterial replication rate decreases; also recorded: slowed
[6]
  growth in control arm: delayed for four hours

## NCC(O)c1ccc(O)c(O)c1 (stereo not shown) [norepinephrine, Norepinephrine]
[1]; starting inoculum 1×10^6 CFU/mL, increasing norepinephrine concentration
  bacterial replication rate (change in bacterial density): as norepinephrine concentration increases so too does the bacterial replication rate; also recorded: sped up
[7]
  growth of control arm relative to no-treatment control arm: grew faster

Reference: patent publication US10751303B2, “Method for shortening anti-infective therapy duration in subjects with infection” (INSTITUTE FOR CLINICAL PHARMACODYNAMICS, INC., priority 2015, dated 2020)
